Key:
[1] = test system: ethoxyresorufin O-deethylase (EROD) activity in 22Rv1 cells; test: Induction of EROD activity in 22Rv1 cells; assay type: cell-based; details: 24-hr treatment
Procedure: An androgen responsive prostate cancer cell line 22Rv1 and an androgen nonresponsive prostate cancer cell line PC3 were treated with TCDD and ethoxyresorufin O-deethylase (EROD) activity was measured.

[2] = target: T1, hAR (Homo sapiens, UniProt P10275); test: Hormone-induced transactivation in ZR-75 cells cotransfected with pPB and hAR; assay type: cell-based; details: cotreated with hormone plus TCDD
T1 construct: expressed in transfected cells; host or cells: ZR-75
T1 sequence (P10275 1-920): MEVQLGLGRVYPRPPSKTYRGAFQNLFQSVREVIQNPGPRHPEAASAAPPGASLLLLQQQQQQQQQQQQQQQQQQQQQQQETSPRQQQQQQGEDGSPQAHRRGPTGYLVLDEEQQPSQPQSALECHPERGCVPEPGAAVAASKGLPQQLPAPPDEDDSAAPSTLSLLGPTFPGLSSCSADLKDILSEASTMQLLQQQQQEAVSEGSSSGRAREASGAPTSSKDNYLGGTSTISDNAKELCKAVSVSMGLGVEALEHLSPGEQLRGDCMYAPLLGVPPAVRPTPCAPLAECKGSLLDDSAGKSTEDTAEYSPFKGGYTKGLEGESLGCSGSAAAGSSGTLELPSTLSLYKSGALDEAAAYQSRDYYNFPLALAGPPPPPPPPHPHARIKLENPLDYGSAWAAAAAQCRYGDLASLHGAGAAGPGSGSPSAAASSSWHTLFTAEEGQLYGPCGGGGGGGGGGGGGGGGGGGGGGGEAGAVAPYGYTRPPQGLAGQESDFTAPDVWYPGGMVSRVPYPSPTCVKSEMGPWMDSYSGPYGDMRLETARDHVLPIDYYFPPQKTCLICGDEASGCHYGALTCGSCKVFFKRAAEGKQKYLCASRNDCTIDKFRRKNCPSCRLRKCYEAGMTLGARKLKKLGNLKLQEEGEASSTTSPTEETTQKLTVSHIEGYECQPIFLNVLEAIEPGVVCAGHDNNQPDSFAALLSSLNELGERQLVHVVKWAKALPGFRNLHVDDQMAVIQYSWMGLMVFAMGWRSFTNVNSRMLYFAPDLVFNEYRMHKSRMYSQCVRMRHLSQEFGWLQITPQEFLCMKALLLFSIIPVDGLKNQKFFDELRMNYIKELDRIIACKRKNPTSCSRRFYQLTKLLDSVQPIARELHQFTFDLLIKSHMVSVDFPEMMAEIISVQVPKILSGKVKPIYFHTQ
Procedure: After 24 h, cells were transfected using Lipofectamine and Plus reagents (Invitrogen) according to manufacturer's instructions. LNCaP and ZR-75 cells were transfected with 500 ng/well of either reporter plasmid, and 250 ng/well of pcDNA3.1-β-gal (Invitrogen) as the internal control. In addition, ZR-75 cells were transfected with 500 ng hAR. Twenty-four hours after treatment, cells were harvested by scraping with 200 μL/well of reporter lysis buffer. Lysates were centrifuged at 40,000 g and luciferase and β-galactosidase activity was assayed with 30 μL of the supernatant extract per sample using a Lumicount luminometer (PerkinElmer, Boston, Mass.). Luciferase activity was normalized to β-galactosidase activity for each transfection well.

With Clc1cc2c(cc1Cl)Oc1cc(Cl)c(Cl)cc1O2 [TCDD, 2,3,7,8-tetrachloro-p-dioxin] the EROD activity induction [1] was “induced EROD activity”, the “effect on DHT-induced activity” value [2] was “not” and the “effect on E2-induced activity” value [2] was “inhibited”.

— patent US20050143450A1, “Alkyl PCDF as a treatment for prostate cancer” (priority 2002, published 2005)
